Test results as given in patent publication US11260049B2, “TRPV4 antagonists” (GlaxoSmithKline Intellectual Property (No. 2) Limited, priority 2016, dated 2022).
pIC50: −log10 of the molar value.

The compounds below were run against human TRPV4 (Homo sapiens (Human), UniProt Q9HBA0) (assay: FLIPR assay for hTRPV4 expressed in BHK cells). Conditions: at least one set of experimental runs; TRPV4 FLIPR assay; read-out: average IC50.
Format: cell-based
Experimental: FLIPR Assay for hTRPV4 Expressed in BHK Cells:
TRPV4 channel activation results in an influx of divalent and monovalent cations including calcium. The resulting changes in intracellular calcium were monitored using a calcium specific fluorescent dye Fluo-4 (MDS Analytical Technologies). BHK/AC9 cells transduced with BacMam virus expressing the human TRPV4 gene at a MOI of 78 were plated in a 384 well poly-D lysine coated plate (15,000 cells/well in 50 μL culture medium containing DMEM/F12 with 15 mM HEPES, 10% FBS, 1% Penicillin-Streptomycin and 1% L-glutamine). Cells were incubated for 24 hours at 37° C. and 5% CO2. Culture medium was then aspirated using a Tecan plate-washer and replaced with 20 μL/well of dye loading buffer: HBSS, 500 μM Brilliant Black (MDS Analytical Technologies), and 2 μM Fluo-4 AM. Dye loaded plates were then incubated in the dark at room temperature for 1˜1.5 hours.

human TRPV4, sequence (Q9HBA0 whole entry): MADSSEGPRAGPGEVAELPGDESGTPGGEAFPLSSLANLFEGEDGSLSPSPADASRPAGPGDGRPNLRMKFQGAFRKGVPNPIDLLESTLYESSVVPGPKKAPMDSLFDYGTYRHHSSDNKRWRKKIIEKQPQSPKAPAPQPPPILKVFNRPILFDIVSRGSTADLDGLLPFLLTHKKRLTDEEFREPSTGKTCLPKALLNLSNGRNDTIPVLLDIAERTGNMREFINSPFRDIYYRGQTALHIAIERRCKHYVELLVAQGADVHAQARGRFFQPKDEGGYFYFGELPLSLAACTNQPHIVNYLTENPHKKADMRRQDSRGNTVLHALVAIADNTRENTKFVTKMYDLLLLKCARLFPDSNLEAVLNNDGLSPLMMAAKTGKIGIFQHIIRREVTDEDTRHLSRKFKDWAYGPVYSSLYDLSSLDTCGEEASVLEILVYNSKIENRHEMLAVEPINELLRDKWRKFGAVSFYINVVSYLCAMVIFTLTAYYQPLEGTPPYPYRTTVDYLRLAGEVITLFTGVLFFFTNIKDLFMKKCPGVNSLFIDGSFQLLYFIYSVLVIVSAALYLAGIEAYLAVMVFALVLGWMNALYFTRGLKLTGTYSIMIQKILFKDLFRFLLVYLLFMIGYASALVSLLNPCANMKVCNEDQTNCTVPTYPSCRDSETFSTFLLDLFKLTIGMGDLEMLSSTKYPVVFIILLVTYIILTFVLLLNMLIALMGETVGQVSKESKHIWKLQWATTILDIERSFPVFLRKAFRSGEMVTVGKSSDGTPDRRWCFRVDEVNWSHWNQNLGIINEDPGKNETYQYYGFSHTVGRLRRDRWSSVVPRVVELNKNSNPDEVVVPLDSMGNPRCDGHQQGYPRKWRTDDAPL

With N#Cc1ccc(S(=O)(=O)N2C[C@H](S(=O)(=O)c3ccc(Cl)cn3)[C@](O)(CO)C2)c(Cl)c1 [Example 1, 3-chloro-4-(((3R,4S)-4-((5-chloropyridin-2-yl)sulfonyl)-3-hydroxy-3-(hydroxymethyl)pyrrolidin-1-yl)sulfonyl)benzonitrile] as the compound, how does the pIC50 read?
Its pIC50 is 8.30.

How did the pIC50 turn out when N#Cc1ccc(S(=O)(=O)[C@H]2CN(S(=O)(=O)c3ccc(F)cc3Br)C[C@@]2(O)CO)cc1 [Example 22, 4-(((3S,4R)-1-((2-bromo-4-fluorophenyl)sulfonyl)-4-hydroxy-4-(hydroxymethyl)pyrrolidin-3-yl)sulfonyl)benzonitrile] was run?
The pIC50 was 7.89.

Same assay, conditions: inhibition of Agonist Compound (EC80)-induced calcium signal; BHK/AC9 cells expressing human TRPV4; read-out: IC50

With N#Cc1ccc(S(=O)(=O)N2C[C@H](S(=O)(=O)c3ccc(Cl)cn3)[C@](O)(CO)C2)c(Cl)c1 [Example 1, 3-chloro-4-(((3R,4S)-4-((5-chloropyridin-2-yl)sulfonyl)-3-hydroxy-3-(hydroxymethyl)pyrrolidin-1-yl)sulfonyl)benzonitrile] as the compound, how does the pIC50 read?
Its pIC50 is 8.00 to 10.00.

How did the pIC50 turn out when N#Cc1ccc(S(=O)(=O)N2C[C@H](S(=O)(=O)c3ccc(Cl)cc3)[C@](O)(CO)C2)c(Cl)c1 [Example 2, 3-chloro-4-(((3R,4S)-4-((4-chlorophenyl)sulfonyl)-3-hydroxy-3-(hydroxymethyl)pyrrolidin-1-yl)sulfonyl)benzonitrile] was run?
The pIC50 was 8.00 to 10.00.

With N#Cc1ccc(S(=O)(=O)N2C[C@H](S(=O)(=O)c3ccc(C#N)c(F)c3)[C@@](O)(CO)C2)c(Cl)c1 [Example 3, 4-(((3S,4S)-1-((2-chloro-4-cyanophenyl)sulfonyl)-4-hydroxy-4-(hydroxymethyl)pyrrolidin-3-yl)sulfonyl)-2-fluorobenzonitrile] as the compound, how does the pIC50 read?
Its pIC50 is 8.00 to 10.00.

How did the pIC50 turn out when N#Cc1ccc(S(=O)(=O)[C@H]2CN(S(=O)(=O)c3ccccc3Cl)C[C@]2(O)CO)cc1F [Example 4, 4-(((3S,4S)-1-((2-chlorophenyl)sulfonyl)-4-hydroxy-4-(hydroxymethyl)pyrrolidin-3-yl)sulfonyl)-2-fluorobenzonitrile] was run?
Its pIC50 is 7.00 to 8.00.

N#Cc1ccc(S(=O)(=O)[C@H]2CN(S(=O)(=O)c3ccc(F)cc3Cl)C[C@]2(O)CO)cc1F [Example 5, 4-(((3S,4S)-1-((2-chloro-4-fluorophenyl)sulfonyl)-4-hydroxy-4-(hydroxymethyl)pyrrolidin-3-yl)sulfonyl)-2-fluorobenzonitrile] was tested. Which pIC50 did it give?
The pIC50 was 7.00 to 8.00.

How did the pIC50 turn out when Cc1ccc(S(=O)(=O)N2C[C@H](S(=O)(=O)c3ccc(C#N)c(F)c3)[C@@](O)(CO)C2)c(Cl)c1 [Example 6, 4-(((3S,4S)-1-((2-chloro-4-methylphenyl)sulfonyl)-4-hydroxy-4-(hydroxymethyl)pyrrolidin-3-yl)sulfonyl)-2-fluorobenzonitrile] was run?
The pIC50 was 7.00 to 8.00.

How did the pIC50 turn out when N#Cc1ccc(S(=O)(=O)[C@H]2CN(S(=O)(=O)c3ccc(C(F)(F)F)cc3Cl)C[C@]2(O)CO)cc1F [Example 7, 4-(((3S,4S)-1-((2-chloro-4-(trifluoromethyl)phenyl)sulfonyl)-4-hydroxy-4-(hydroxymethyl)pyrrolidin-3-yl)sulfonyl)-2-fluorobenzonitrile] was run?
Its pIC50 is 7.00 to 8.00.

With N#Cc1ccc(S(=O)(=O)[C@H]2CN(S(=O)(=O)c3ccc(OC(F)(F)F)cc3Cl)C[C@]2(O)CO)cc1F [Example 8, 4-(((3S,4S)-1-((2-chloro-4-(trifluoromethoxy)phenyl)sulfonyl)-4-hydroxy-4-(hydroxymethyl)pyrrolidin-3-yl)sulfonyl)-2-fluorobenzonitrile] as the compound, how does the pIC50 read?
The pIC50 was 7.00 to 8.00.

With N#Cc1ccc(S(=O)(=O)[C@H]2CN(S(=O)(=O)c3cc(F)c(Cl)cc3Cl)C[C@]2(O)CO)cc1F [Example 9, 4-(((3S,4S)-1-((2,4-dichloro-5-fluorophenyl)sulfonyl)-4-hydroxy-4-(hydroxymethyl)pyrrolidin-3-yl)sulfonyl)-2-fluorobenzonitrile] as the compound, how does the pIC50 read?
The pIC50 was 7.00 to 8.00.

How did the pIC50 turn out when N#Cc1ccc(S(=O)(=O)N2C[C@H](S(=O)(=O)c3ccc(C#N)c(F)c3)[C@](O)(CO)C2)c(Cl)c1 [Example 10, 4-(((3S,4R)-1-((2-chloro-4-cyanophenyl)sulfonyl)-4-hydroxy-4-(hydroxymethyl)pyrrolidin-3-yl)sulfonyl)-2-fluorobenzonitrile] was run?
The pIC50 was 8.00 to 10.00.

N#Cc1ccc(S(=O)(=O)[C@H]2CN(S(=O)(=O)c3ccccc3Cl)C[C@@]2(O)CO)cc1F [Example 11, 4-(((3S,4R)-1-((2-chlorophenyl)sulfonyl)-4-hydroxy-4-(hydroxymethyl)pyrrolidin-3-yl)sulfonyl)-2-fluorobenzonitrile] was tested. Which pIC50 did it give?
Its pIC50 is 7.00 to 8.00.

How did the pIC50 turn out when N#Cc1ccc(S(=O)(=O)[C@H]2CN(S(=O)(=O)c3ccc(F)cc3Cl)C[C@@]2(O)CO)cc1F [Example 12, 4-(((3S,4R)-1-((2-chloro-4-fluorophenyl)sulfonyl)-4-hydroxy-4-(hydroxymethyl)pyrrolidin-3-yl)sulfonyl)-2-fluorobenzonitrile] was run?
The pIC50 was 8.00 to 10.00.

Cc1ccc(S(=O)(=O)N2C[C@H](S(=O)(=O)c3ccc(C#N)c(F)c3)[C@](O)(CO)C2)c(Cl)c1 [Example 13, 4-(((3S,4R)-1-((2-chloro-4-methylphenyl)sulfonyl)-4-hydroxy-4-(hydroxymethyl)pyrrolidin-3-yl)sulfonyl)-2-fluorobenzonitrile] was tested. Which pIC50 did it give?
Its pIC50 is 8.00 to 10.00.

How did the pIC50 turn out when N#Cc1ccc(S(=O)(=O)[C@H]2CN(S(=O)(=O)c3ccc(C(F)(F)F)cc3Cl)C[C@@]2(O)CO)cc1F [Example 14, 4-(((3S,4R)-1-((2-chloro-4-(trifluoromethyl)phenyl)sulfonyl)-4-hydroxy-4-(hydroxymethyl)pyrrolidin-3-yl)sulfonyl)-2-fluorobenzonitrile] was run?
Its pIC50 is 8.00 to 10.00.

How did the pIC50 turn out when N#Cc1ccc(S(=O)(=O)[C@H]2CN(S(=O)(=O)c3ccc(OC(F)(F)F)cc3Cl)C[C@@]2(O)CO)cc1F [Example 15, 4-(((3S,4R)-1-((2-chloro-4-(trifluoromethoxy)phenyl)sulfonyl)-4-hydroxy-4-(hydroxymethyl)pyrrolidin-3-yl)sulfonyl)-2-fluorobenzonitrile] was run?
Its pIC50 is 7.00 to 8.00.

How did the pIC50 turn out when N#Cc1ccc(S(=O)(=O)[C@H]2CN(S(=O)(=O)c3cc(F)c(Cl)cc3Cl)C[C@@]2(O)CO)cc1F [Example 16, 4-(((3S,4R)-1-((2,4-dichloro-5-fluorophenyl)sulfonyl)-4-hydroxy-4-(hydroxymethyl)pyrrolidin-3-yl)sulfonyl)-2-fluorobenzonitrile] was run?
Its pIC50 is 8.00 to 10.00.

N#Cc1cc(Cl)ccc1S(=O)(=O)N1C[C@H](S(=O)(=O)c2ccc(Cl)cc2)[C@](O)(CO)C1 [Example 17, 5-chloro-2-(((3R,4S)-4-((4-chlorophenyl)sulfonyl)-3-hydroxy-3-(hydroxymethyl)pyrrolidin-1-yl)sulfonyl)benzonitrile] was tested. Which pIC50 did it give?
The pIC50 was 8.00 to 10.00.

How did the pIC50 turn out when O=S(=O)(c1ccc(Cl)cc1)[C@H]1CN(S(=O)(=O)c2ccc(Cl)cc2Cl)C[C@@]1(O)CO [Example 18, (3R,4S)-4-((4-chlorophenyl)sulfonyl)-1-((2,4-dichlorophenyl)sulfonyl)-3-(hydroxymethyl)pyrrolidin-3-ol] was run?
Its pIC50 is 7.00 to 8.00.

N#Cc1ccc(S(=O)(=O)N2C[C@H](S(=O)(=O)c3ccc(Cl)cc3)[C@](O)(CO)C2)c(C(F)(F)F)c1 [Example 19, 4-(((3R,4S)-4-((4-chlorophenyl)sulfonyl)-3-hydroxy-3-(hydroxymethyl)pyrrolidin-1-yl)sulfonyl)-3-(trifluoromethyl)benzonitrile] was tested. Which pIC50 did it give?
Its pIC50 is 8.00 to 10.00.

How did the pIC50 turn out when Cc1cc(C#N)ccc1S(=O)(=O)N1C[C@H](S(=O)(=O)c2ccc(Cl)cc2)[C@](O)(CO)C1 [Example 20, 4-(((3R,4S)-4-((4-chlorophenyl)sulfonyl)-3-hydroxy-3-(hydroxymethyl)pyrrolidin-1-yl)sulfonyl)-3-methylbenzonitrile] was run?
The pIC50 was 7.00 to 8.00.

How did the pIC50 turn out when N#Cc1ccc(S(=O)(=O)N2C[C@H](S(=O)(=O)c3ccc(Cl)cc3)[C@](O)(CO)C2)c(F)c1 [Example 21, 4-(((3R,4S)-4-((4-chlorophenyl)sulfonyl)-3-hydroxy-3-(hydroxymethyl)pyrrolidin-1-yl)sulfonyl)-3-fluorobenzonitrile] was run?
The pIC50 was 7.00 to 8.00.

With N#Cc1ccc(S(=O)(=O)[C@H]2CN(S(=O)(=O)c3ccc(F)cc3Br)C[C@@]2(O)CO)cc1 [Example 22, 4-(((3S,4R)-1-((2-bromo-4-fluorophenyl)sulfonyl)-4-hydroxy-4-(hydroxymethyl)pyrrolidin-3-yl)sulfonyl)benzonitrile] as the compound, how does the pIC50 read?
Its pIC50 is 7.00 to 8.00.

How did the pIC50 turn out when N#Cc1ccc(S(=O)(=O)N2C[C@H](S(=O)(=O)c3ccc(Cl)cc3)[C@@](O)(CO)C2)c(Cl)c1 [Example 23, 3-chloro-4-(((3S,4S)-4-((4-chlorophenyl)sulfonyl)-3-hydroxy-3-(hydroxymethyl)pyrrolidin-1-yl)sulfonyl)benzonitrile] was run?
Its pIC50 is 7.00 to 8.00.

N#Cc1ccc(S(=O)(=O)N2C[C@H](S(=O)(=O)c3ccc(Br)cc3)[C@@](O)(CO)C2)c(Cl)c1 [Example 24, 4-(((3S,4S)-4-((4-bromophenyl)sulfonyl)-3-hydroxy-3-(hydroxymethyl)pyrrolidin-1-yl)sulfonyl)-3-chlorobenzonitrile] was tested. Which pIC50 did it give?
Its pIC50 is 7.00 to 8.00.

N#Cc1ccc(S(=O)(=O)[C@H]2CN(S(=O)(=O)c3ccc(Cl)cc3C(F)(F)F)C[C@@]2(O)CO)cc1 [Example 25, 4-(((3S,4R)-1-((4-chloro-2-(trifluoromethyl)phenyl)sulfonyl)-4-hydroxy-4-(hydroxymethyl)pyrrolidin-3-yl)sulfonyl)benzonitrile] was tested. Which pIC50 did it give?
Its pIC50 is 8.00 to 10.00.

How did the pIC50 turn out when N#Cc1ccc(S(=O)(=O)N2C[C@H](S(=O)(=O)c3ccc(C(F)(F)F)nc3)[C@](O)(CO)C2)c(Cl)c1 [Example 26, 3-chloro-4-(((3R,4S)-3-hydroxy-3-(hydroxymethyl)-4-((6-(trifluoromethyl)pyridin-3-yl)sulfonyl)pyrrolidin-1-yl)sulfonyl)benzonitrile] was run?
The pIC50 was 7.00 to 8.00.

N#Cc1ccc(S(=O)(=O)N2C[C@H](S(=O)(=O)c3ccc(C(F)(F)F)nc3)[C@](O)(CO)C2)c(C(F)(F)F)c1 [Example 27, 4-(((3R,4S)-3-hydroxy-3-(hydroxymethyl)-4-((6-(trifluoromethyl)pyridin-3-yl)sulfonyl)pyrrolidin-1-yl)sulfonyl)-3-(trifluoromethyl)benzonitrile] was tested. Which pIC50 did it give?
Its pIC50 is 7.00 to 8.00.

How did the pIC50 turn out when Cc1cc(C(F)(F)F)ccc1S(=O)(=O)N1C[C@H](S(=O)(=O)c2ccc(C#N)cc2)[C@](O)(CO)C1 [Example 28, 4-(((3S,4R)-4-hydroxy-4-(hydroxymethyl)-1-((2-methyl-4-(trifluoromethyl)phenyl)sulfonyl)pyrrolidin-3-yl)sulfonyl)benzonitrile] was run?
The pIC50 was 7.00 to 8.00.
